This note sets out measurements from US20240268372A1, “Methods and Compositions for Extending Organ and Tissue Preservation” (The General Hospital Corporation, priority 2021, published 2024).

The subject of assay [1] is rat livers. Description: Initial partial freezing protocol of rat livers at −6° C., SNMP recovery. The following applies: glycerol 6% vol/vol with Snomax 1 g/L, 3-OMG 200 mM, PEG 5%.
Assay [2] deals with rat livers. Briefly: Partial freezing of rat livers with 12% glycerol with or without ice modulators, SNMP recovery. The text has this:
Experimental design: FIG. 39 outlines the rat liver partial freezing protocol in eight consecutive steps: (1) liver procurement, (2) preconditioning during SNMP, (3) CPA preloading during hypothermic machine perfusion (HMP), (4) loading of final storage solution and ice modulators during HMP, (5) partial freezing of rat liver, (6) thawing of rat liver, (7) unloading of CPAs during HMP, and (8) functional recovery of frozen rat livers during SNMP.
Within this protocol, we first compared partially frozen livers at −10° C. (n=4 livers) and −15° C. (n=9 livers) with 12% glycerol. Upon finding minimal differences between these two groups, we combined them as a control and compared them to livers partially frozen with 0.5 mg/ml (0.05% w/v) of AFGP (n=4 livers) or 0.1% X-1000/0.2% Z-1000 (total, 0.3% w/v; n=4 livers) ice modulating agents added to the preservation solution. After freezing, liver viability on SNMP was compared between the 12% glycerol control group and the two ice modulated groups.
Partial freezing protocol: The rat liver perfusion system involved perfusion through the cannulated portal vein (PV) with regulation of pressure, flow, and temperature. Detailed set-up of the perfusion system has been previously described (see, e.g., ref. 34). The total rat hepatectomy protocol was approved by the Institutional Animal Care and Use Committee (IACUC) of Massachusetts General Hospital (Boston, MA). Livers were procured from male Lewis rats (250-300 g, age 10-12 weeks. Charles River Laboratories, Wilmington, MA) (FIG. 39, step 1). The bile duct was isolated and cannulated, and the rats were heparinized with 30U sodium heparin. PV splenic and gastric branches, as well as the hepatic artery were ligated prior to cannulation. The PV was subsequently cannulated with a 16-gauge catheter and immediately flushed with 40 ml of heparinized saline (1000U/ml at room temperature). The liver was then freed from all peritoneal attachments, flushed with an additional 20 ml of heparinized saline. After procurement, the liver was weighed, and machine perfusion was immediately initiated.
Preconditioning during SNMP was initiated at 21° C. with a flow rate of 5 ml/min (FIG. 39, step 2). […] The rat livers were perfused for 1 hour with 500 ml of preconditioning solution including Williams E, 200 U/l of insulin, 2% w/v PEG, 50 g/L BSA, 100 mM 3-O-methylglucose (3-OMG), 10,000 U/l of heparin, 24 mg/L of dexamethasone, 25 mg/ml of hydrocortisone, 40,000 μg/l of penicillin, and 40,000 U/l of streptomycin and sodium bicarbonate as needed to maintain a physiological pH (see Table 9 for composition of all solutions).
After 1 hour of preconditioning during SNMP, the temperature was decreased to 4° C. at a rate of ˜1° C./min. Flow rates were gradually adjusted as necessary to ensure a maximum perfusion pressure of 3-5 mmHg during HMP. The SNMP preconditioning solution was switched to 500 ml CPA preloading solution at 4° C. (including Williams E, 200 U/l of insulin, 2% PEG, 50 g/L BSA, 100 mM 3-OMG, 30 mM raffinose, 3% hydroxyethyl starch (HES), 6% glycerol, 4000 U/l of heparin, 24 mg/l of dexamethasone, 25 mg/ml of hydrocortisone, 40,000 μg/l of penicillin, 40,000 U/l of streptomycin, and sodium bicarbonate as needed to maintain a physiological pH) (FIG. 39, step 3; Table 9). HMP was continued for 1 hour to ensure complete equilibration of solution throughout the liver parenchyma. […]

Setting [3] is: after SNMP recovery, pooled 1 and 5 days.

Turning to `OCC(O)CO` [GLY, glycerol], the “vascular resistance (mean±SD)” value in assay [1] was 0.11±0.05 mmHg*min/ml*g. The edema in assay [1] (one-step hand syringe loading) is given as > 60%. Besides, in assay [2] (12% glycerol only, pooled 1 and 5 days, at time zero), the mean perfusate lactate came to 1.17 ± 0.61 mmol/L. Moreover, the “function of livers frozen at −10° C. vs −15° C. (perfusion metrics, weight gain, ATP, EC)” value in assay [2] (12% glycerol, pooled 1 and 5 days) was “not functionally different”. In assay [2] (after 1 and 5 day partial freezing), the “H&E staining of liver parenchyma” value is “sinusoidal damage and compression, peri-portal endothelial destruction”. Also, the TUNEL staining result in assay [2] (after 1 and 5 days of frozen storage) is on record as “remarkably less TUNEL staining”. Besides, in assay [2] (setting [3]), the “mean ATP” value was determined as 0.187 ± 0.075 µg/mL and the “mean energy charge (EC), (ATP+1/2ADP)/(ATP+ADP+AMP)” value came out at 0.066±0.032. Further, the “final mean weight gain” value in assay [2] (end of SNMP recovery vs weight after procurement, pooled 1 and 5 days) amounted to 26.9±15.3%. In addition, in assay [2] (pooled 1 and 5 days, at 0 hours), the mean vascular resistance turned out to be 0.528±0.39 mmHg/ml/min. The mean perfusate potassium in assay [2] (pooled 1 and 5 days, at 1 hour) was determined as 6.5 ± 1.01 mmol/L.
